# Experimental data as given in patent publication US5438053A, “Cephem compounds compositions and method” (Takeda Chemical Industries, Ltd., priority 1992, dated 1995).
# How the values were obtained:
# P. aeruginosa P9 = experiment: Minimal inhibitory concentration (MIC) by the agar dilution method, P. aeruginosa P9; format: cell-based; conditions: Pseudomonas aeruginosa, Mueller-Hinton agar, about 10^4 CFU/spot, 37° C. overnight
# Description: (§1) Test Example 1 Minimal Inhibitory Concentrations (MIC)
# (§2) The minimal inhibitory concentrations (MIC) of the test compounds were determined by the agar dilution method. More specifically, 0.25 ml each of aqueous solutions of the test compounds diluted by the serial dilution method was poured into petridishes. To each of these petridishes was poured 9.75 ml of Mueller-Hinton agar, followed by mixing. On each of these agar plates was a suspension of the test microorganism (about 10^4 CFU/spot). The lowest concentration of the test compounds inhibiting the growth of test microorganisms, after the incubation at 37° C. overnight, was taken as MIC.
# P. aeruginosa NC-5 = experiment: Minimal inhibitory concentration (MIC) by the agar dilution method, P. aeruginosa NC-5; format: cell-based; conditions: Pseudomonas aeruginosa, NC5, Mueller-Hinton agar, about 10^4 CFU/spot, 37° C. overnight
# Description: as §1, §2
SMILES,MIC (P. aeruginosa P9) [µg/mL],MIC (P. aeruginosa NC-5) [µg/mL]
"CO/N=C(\C(=O)N[C@@H]1C(=O)N2C(C(=O)O)=C(CSc3snc(SCc4cc(=O)c(O)cn4O)c3C#N)CS[C@H]12)c1nsc(N)n1 [Ex. 3, Sodium 7β-[2-(5-amino-1,2,4-thiadiazol-3-yl)-(Z)-2-methoxyiminoacetamido]-3-[[4-cyano-3-[(1,5-dihydroxy-4-pyridon-2-yl)methylthio]isothiazol-5-yl]thiomethyl]-3-cephem-4-carboxylate]",0.1,0.05
"CO/N=C(\C(=O)N[C@@H]1C(=O)N2C(C(=O)O)=C(CSc3nnnn3Cc3cc(=O)c(O)cn3OC)CS[C@H]12)c1nsc(N)n1 [Ex. 10, Sodium 7β-[2-(5-amino-1,2,4-thiadiazol-3-yl)-(Z)-2-methoxyiminoacetamido]-3-[[1-[(5-hydroxy-1-methoxy-4-pyridon-2-yl)methyl]-1H-tetrazol-5-yl]thiomethyl]-3-cephem-4-carboxylate]",0.2,0.1
"CCO/N=C(\C(=O)N[C@@H]1C(=O)N2C(C(=O)O)=C(CSc3nnnn3Cc3cc(=O)c(O)cn3OC)CS[C@H]12)c1nsc(N)n1 [Ex. 12, Sodium 7β-[2-(5-amino-1,2,4-thiadiazol-3-yl)-(Z)-2-ethoxyiminoacetamido]-3-[[1-[(5-hydroxy-1-methoxy-4-pyridon-2-yl)methyl]-1H-tetrazol-5-yl]thiomethyl]-3-cephem-4-carboxylate]",0.2,0.2
"CC(C)(O/N=C(\C(=O)N[C@@H]1C(=O)N2C(C(=O)O)=C(CSc3nnnn3Cc3cc(=O)c(O)cn3O)CS[C@H]12)c1nsc(N)n1)C(=O)O [Ex. 26, Disodium 7β-[2-(5-amino-1,2,4-thiadiazol-3-yl)-(Z)-2-(1-carboxylato-1-methylethoxyimino)acetamido]-3-[[1-[(1,5-dihydroxy-4-pyridon-2-yl)methyl]-1H-tetrazol-5-yl]thiomethyl]-3-cephem-4-carboxylate]",0.025,0.006
